In PubChem BioAssay (NCI):
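Where inhibition never reached the appropriate level, the endpoint shown equals the highest concentration tested. Otherwise, values were interpolated linearly from a five-concentration, 48-hour dose response in 96-well plates. Here, GI50 denotes the concentration required for 50% inhibition of growth. At the TGI there is no net growth.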

How the values were obtained:
Test in all cases: NCI-60 cell line screen, 48 h
SR leukemia = system: SR leukemia
LOX IMVI melanoma = system: LOX IMVI melanoma
OVCAR-8 ovarian = system: OVCAR-8 ovarian
SN12C renal = system: SN12C renal
786-0 renal = system: 786-0 renal
IGROV1 ovarian = system: IGROV1 ovarian
M14 melanoma = system: M14 melanoma
RPMI-8226 leukemia = system: RPMI-8226 leukemia
CAKI-1 renal = system: CAKI-1 renal
NCI/ADR-RES ovarian = system: NCI/ADR-RES ovarian

| Structure (SMILES) | TGI (SR leukemia) [µM] | TGI (LOX IMVI melanoma) [µM] | TGI (OVCAR-8 ovarian) [µM] | TGI (SN12C renal) [µM] | TGI (786-0 renal) [µM] | TGI (IGROV1 ovarian) [µM] | TGI (M14 melanoma) [µM] | TGI (RPMI-8226 leukemia) [µM] | TGI (CAKI-1 renal) [µM] | GI50 (NCI/ADR-RES ovarian) [µM] | TGI (NCI/ADR-RES ovarian) [µM] | GI50 (LOX IMVI melanoma) [µM] | GI50 (OVCAR-8 ovarian) [µM] | GI50 (CAKI-1 renal) [µM] | GI50 (786-0 renal) [µM] | GI50 (IGROV1 ovarian) [µM] | GI50 (M14 melanoma) [µM] | GI50 (SN12C renal) [µM] |
| --- | --- | --- | --- | --- | --- | --- | --- | --- | --- | --- | --- | --- | --- | --- | --- | --- | --- | --- |
| Cc1nc(C(N)=O)c(N)n1CCN1CCN(C(=O)CCCCCCCCCCNC2N=CNc3nc[nH]c32)CC1 (stereo unspecified) | 43.3 | > 100 | > 100 | > 100 | > 100 | > 100 | 82.8 |  |  |  |  |  |  |  |  |  |  |  |
| Cc1cc2c(C)nn(Cc3ccccc3)c2c(C(=O)O)c1C | > 100 | > 100 | > 100 | > 100 | > 100 | > 100 |  | > 100 |  |  |  |  |  |  |  |  |  |  |
| C[N+](C)(C)CCC(=O)CC[N+](C)(C)C |  |  | 44 |  | 46.5 | > 100 | 34.2 | 21.6 | 29.2 |  |  |  |  |  |  |  |  |  |
| O=C1C[C@H]2CCCN2[C@@H](c2ccccc2)C1 |  | > 100 | > 100 | > 100 | > 100 | > 100 | > 100 | > 100 | > 100 |  |  |  |  |  |  |  |  |  |
| c1ccc(C2ONC3=NCCN32)cc1 (stereo unspecified) |  | > 100 | > 100 |  | 68 | > 100 | > 100 |  | > 100 | 25.8 | 88.6 | 11.3 | 44.6 | 36.1 | 13.3 | 31.2 | > 100 |  |
| COc1cc(/C=C/C(=O)/C=C/c2cc(OC)c3c(c2)OCO3)cc2c1OCO2 |  | 4.35 | 12.9 | > 100 | > 100 | > 100 | 19.4 |  | > 100 | 52.8 | > 100 | 1.89 | 2.83 | > 100 | 9.63 | 4.78 | 4.03 | 30.9 |
| O=c1cc(-c2cccs2)[nH]c2cc3c(cc12)OCO3 | > 100 | > 100 | 27.7 | > 100 | > 41.3 | > 53.4 | > 100 | > 100 |  |  |  |  |  |  |  |  |  |  |
| CCc1cccc(C)c1NS(=O)(=O)c1ccccc1 |  |  | > 100 |  | > 100 | > 100 | > 100 | > 100 | > 100 |  |  |  |  |  |  |  |  |  |
| Cn1c(=O)c(N=Nc2c(=O)n(C)c(=O)n3c2[nH]c2ccccc23)c2[nH]c3ccccc3n2c1=O |  | > 100 | > 100 |  | > 100 | > 100 | > 100 | > 100 | > 100 |  |  |  |  |  |  |  |  |  |
| CC(=O)c1c(O)c(C)c(O)c(Cc2c(O)c3c(c(C(=O)/C=C/c4ccccc4)c2O)OC(C)(C)C=C3)c1O |  | 14.3 | 23.7 | 9.09 | 18.7 | 16.3 | 18.4 | > 100 | 9.07 |  | 15.8 |  |  |  |  |  |  |  |
| N#CC(N)=Nc1ccccc1 | > 100 | > 100 | > 100 | > 100 | > 100 | > 100 | > 100 | > 100 | > 100 |  |  |  |  |  |  |  |  |  |
| Nc1ncnc2c1ncn2C1OC(CSCC(F)(F)F)C(O)C1O (stereo unspecified) | > 100 | > 100 | > 100 | > 100 | > 100 | > 100 | > 100 | > 100 | > 100 |  |  |  |  |  |  |  |  |  |
